Patent EP1247803A2, “Indolinone compounds suitable for modulation of protein kinases” (Sugen, Inc., priority 1996, dated 1998)

How the values were obtained:
FLK-1 receptor = biological target: T1, FLK-1 receptor (Mus musculus, UniProt P35918); test: FLK-1 ELISA (kinase activity of the FLK-1 receptor in FLK-1/NIH3T3 cells, VEGF stimulated); format: cell-based
T1 construct: expressed in transfected cells; host or cells: NIH3T3 C7#3
Procedure, shortened: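 FLK-1-expressing NIH3T3 C7#3 cells, starved overnight in 0.1% FBS medium, were treated with compounds at a 1:200 final dilution (0.5% DMSO) for 2 h at 37 °C, with VEGF stimulation. FLK-1 kinase activity was read by ELISA on anti-rabbit IgG plates using affinity-purified anti-FLK-1 antiserum.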

PDGF-R = PDGF-R (Homo sapiens, UniProt P09619); test: PDGF-R ELISA; format: cell-based
Chain of PDGF-R (P09619 33-1106, species assumed): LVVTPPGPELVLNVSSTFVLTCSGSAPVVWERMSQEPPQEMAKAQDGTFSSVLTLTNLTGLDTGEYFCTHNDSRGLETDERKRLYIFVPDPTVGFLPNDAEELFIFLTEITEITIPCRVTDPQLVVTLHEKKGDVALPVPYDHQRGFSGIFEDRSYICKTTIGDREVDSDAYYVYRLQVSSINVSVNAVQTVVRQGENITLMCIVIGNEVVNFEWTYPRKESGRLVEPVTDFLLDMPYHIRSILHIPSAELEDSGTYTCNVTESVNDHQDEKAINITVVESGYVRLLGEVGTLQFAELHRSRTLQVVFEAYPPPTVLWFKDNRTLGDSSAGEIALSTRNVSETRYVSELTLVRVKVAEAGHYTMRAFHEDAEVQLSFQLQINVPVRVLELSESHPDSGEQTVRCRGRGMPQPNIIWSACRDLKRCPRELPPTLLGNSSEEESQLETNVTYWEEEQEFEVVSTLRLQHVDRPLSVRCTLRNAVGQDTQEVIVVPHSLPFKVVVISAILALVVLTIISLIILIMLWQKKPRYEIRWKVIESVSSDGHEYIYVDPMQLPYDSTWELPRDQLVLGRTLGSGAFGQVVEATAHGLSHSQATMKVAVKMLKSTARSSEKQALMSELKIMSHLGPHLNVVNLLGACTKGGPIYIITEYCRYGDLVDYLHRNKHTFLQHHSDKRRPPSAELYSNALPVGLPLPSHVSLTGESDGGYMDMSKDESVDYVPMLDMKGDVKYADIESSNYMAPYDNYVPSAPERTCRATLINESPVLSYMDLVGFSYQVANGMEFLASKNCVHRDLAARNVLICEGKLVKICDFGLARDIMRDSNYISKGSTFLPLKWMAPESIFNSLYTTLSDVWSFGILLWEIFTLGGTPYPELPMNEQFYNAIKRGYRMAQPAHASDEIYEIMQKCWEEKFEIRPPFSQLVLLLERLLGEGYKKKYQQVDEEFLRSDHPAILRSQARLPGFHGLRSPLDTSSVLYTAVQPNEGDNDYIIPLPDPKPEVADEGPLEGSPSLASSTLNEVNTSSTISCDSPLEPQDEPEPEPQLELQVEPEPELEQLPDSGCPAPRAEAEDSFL
Description: A PDGF-R ELISA is described in International Patent Publication No. WO 96/40116, published December 19, 1996 by Tang et al.

T1 sequence (P35918 20-1345): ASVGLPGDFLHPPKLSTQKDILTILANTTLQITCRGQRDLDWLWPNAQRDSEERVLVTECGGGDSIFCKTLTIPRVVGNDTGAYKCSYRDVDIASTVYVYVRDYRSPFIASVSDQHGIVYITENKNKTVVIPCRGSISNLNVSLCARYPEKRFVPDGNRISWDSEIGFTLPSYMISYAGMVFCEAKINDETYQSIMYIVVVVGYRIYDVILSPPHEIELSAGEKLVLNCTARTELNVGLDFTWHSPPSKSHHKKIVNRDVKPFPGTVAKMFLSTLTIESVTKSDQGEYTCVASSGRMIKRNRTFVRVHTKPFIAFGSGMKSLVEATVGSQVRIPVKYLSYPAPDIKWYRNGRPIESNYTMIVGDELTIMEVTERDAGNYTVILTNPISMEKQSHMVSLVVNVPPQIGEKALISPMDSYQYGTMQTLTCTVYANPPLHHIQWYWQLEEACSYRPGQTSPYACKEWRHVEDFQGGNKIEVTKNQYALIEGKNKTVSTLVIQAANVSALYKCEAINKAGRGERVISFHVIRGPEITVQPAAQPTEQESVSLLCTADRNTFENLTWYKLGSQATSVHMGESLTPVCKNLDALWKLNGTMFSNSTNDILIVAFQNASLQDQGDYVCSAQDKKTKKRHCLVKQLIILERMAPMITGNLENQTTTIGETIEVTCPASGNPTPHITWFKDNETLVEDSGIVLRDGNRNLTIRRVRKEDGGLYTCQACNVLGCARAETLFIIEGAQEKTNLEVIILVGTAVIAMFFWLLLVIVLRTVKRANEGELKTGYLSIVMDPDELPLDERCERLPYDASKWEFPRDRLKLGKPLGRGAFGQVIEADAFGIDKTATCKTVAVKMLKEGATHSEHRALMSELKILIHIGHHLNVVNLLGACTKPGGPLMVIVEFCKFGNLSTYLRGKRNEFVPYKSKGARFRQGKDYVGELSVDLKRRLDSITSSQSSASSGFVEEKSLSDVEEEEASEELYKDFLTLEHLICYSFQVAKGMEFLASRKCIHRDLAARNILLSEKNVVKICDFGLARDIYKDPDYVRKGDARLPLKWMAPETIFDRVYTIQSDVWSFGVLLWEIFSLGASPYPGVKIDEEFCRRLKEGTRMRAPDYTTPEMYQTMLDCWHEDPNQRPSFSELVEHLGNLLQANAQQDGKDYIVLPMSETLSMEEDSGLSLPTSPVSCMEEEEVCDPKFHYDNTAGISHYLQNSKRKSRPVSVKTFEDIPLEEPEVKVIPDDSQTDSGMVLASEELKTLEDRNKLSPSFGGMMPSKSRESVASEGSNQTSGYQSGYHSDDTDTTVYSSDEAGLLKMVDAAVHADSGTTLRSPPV

SMILES | Fik Kinase %Inhibition (FLK-1 receptor) [%] | PDGF Kinase %Inhibition (PDGF-R) [%]
O=C1Nc2c(Br)cc(Br)cc2C1=Cc1cccs1 [10717/A03] | 2.9 | 
CCOc1ccccc1C=C1C(=O)Nc2ccc(S(=O)(=O)NC)cc21 [10717/D02] | 5.1 | 
CNS(=O)(=O)c1ccc2c(c1)C(=Cc1cccs1)C(=O)N2 [10717/D03] | 1.1 | 
CNS(=O)(=O)c1ccc2c(c1)C(=Cc1cccn1C)C(=O)N2 [10717/D04] | -2.1 | 
CNS(=O)(=O)c1ccc2c(c1)C(=Cc1ccc(F)cc1)C(=O)N2 [10717/D05] | -3.8 | 
CNS(=O)(=O)c1ccc2c(c1)C(=Cc1c[nH]c3ccccc13)C(=O)N2 [10717/D06] | 1.0 | 
CNS(=O)(=O)c1ccc2c(c1)C(=Cc1ccc(C)s1)C(=O)N2 [10717/D07] | -8.4 | 
CNS(=O)(=O)c1ccc2c(c1)C(=Cc1ccc(Br)cc1)C(=O)N2 [10717/D08] | 6.8 | 
CNS(=O)(=O)c1ccc2c(c1)C(=Cc1ccc[nH]1)C(=O)N2 [10717/D09] | -55.0 | 
CNS(=O)(=O)c1ccc2c(c1)C(=Cc1c(O)cccc1OC)C(=O)N2 [10717/D10] | -6.0 | 
CNS(=O)(=O)c1ccc2c(c1)C(=Cc1cc(Br)c(O)c(C(C)(C)C)c1)C(=O)N2 [10721/D10] | 23.7 | 
CNS(=O)(=O)c1ccc2c(c1)C(=Cc1cc(C(C)(C)C)c(O)c(C(C)(C)C)c1)C(=O)N2 [10721/D11] | 20.6 | 
Cn1c(C=C2C(=O)Nc3ccc(S(=O)(=O)Nc4ccc(C(F)(F)F)cc4)cc32)nc2ccccc21 [10721/E02] | 17.2 | 
Cn1cc(Cl)c(C=C2C(=O)Nc3ccc(S(=O)(=O)Nc4ccc(C(F)(F)F)cc4)cc32)n1 [10721/E03] | 10.9 | 
Cc1cc(C=C2C(=O)Nc3ccc(S(=O)(=O)Nc4ccc(C(F)(F)F)cc4)cc32)sc1C [10721/E04] | 16.0 | 
O=C1Nc2ccc(S(=O)(=O)Nc3ccc(C(F)(F)F)cc3)cc2C1=Cc1cc2c([nH]1)CCCC2 [10721/E05] | 10.8 | 
O=C1Nc2ccc(S(=O)(=O)Nc3ccc(C(F)(F)F)cc3)cc2C1=Cc1cc([N+](=O)[O-])cc(CCl)c1O [10721/E06] | 40.4 | 
O=C1Nc2ccc(S(=O)(=O)Nc3ccc(C(F)(F)F)cc3)cc2C1=Cc1ccc(Cl)s1 [10721/E07] | 15.6 | 
Cc1cc(C)c(C=C2C(=O)Nc3ccc(S(=O)(=O)Nc4ccc(C(F)(F)F)cc4)cc32)[nH]1 [10721/E08] | 15.7 | 
CC(C)(C)c1cc(C=C2C(=O)Nc3ccc(S(=O)(=O)Nc4ccc(C(F)(F)F)cc4)cc32)ccc1O [10721/E09] | 36.9 | 
CC(C)(C)c1cc(C=C2C(=O)Nc3ccc(S(=O)(=O)Nc4ccc(C(F)(F)F)cc4)cc32)cc(Br)c1O [10721/E10] | 9.3 | 

SMILES | Fik Kinase %Inhibition (FLK-1 receptor) [%] | PDGF Kinase %Inhibition (PDGF-R) [%]
CC(C)(C)c1cc(C=C2C(=O)Nc3ccc(S(=O)(=O)Nc4ccc(C(F)(F)F)cc4)cc32)cc(C(C)(C)C)c1O [10721/E11] | 0.7 | 
Cn1c(C=C2C(=O)Nc3ccc(S(=O)(=O)N4CCOCC4)cc32)nc2ccccc21 [10721/F02] | 17.0 | 
Cn1cc(Cl)c(C=C2C(=O)Nc3ccc(S(=O)(=O)N4CCOCC4)cc32)n1 [10721/F03] | 9.1 | 
Cc1cc(C=C2C(=O)Nc3ccc(S(=O)(=O)N4CCOCC4)cc32)sc1C [10721/F04] | 7.4 | 
O=C1Nc2ccc(S(=O)(=O)N3CCOCC3)cc2C1=Cc1cc2c([nH]1)CCCC2 [10721/F05] | 8.1 | 
O=C1Nc2ccc(S(=O)(=O)N3CCOCC3)cc2C1=Cc1cc([N+](=O)[O-])cc(CCl)c1O [10721/F06] | 2.2 | 
O=C1Nc2ccc(S(=O)(=O)N3CCOCC3)cc2C1=Cc1ccc(Cl)s1 [10721/F07] | 4.8 | 
Cc1cc(C)c(C=C2C(=O)Nc3ccc(S(=O)(=O)N4CCOCC4)cc32)[nH]1 [10721/F08] | -6.4 | 
CC(C)(C)c1cc(C=C2C(=O)Nc3ccc(S(=O)(=O)N4CCOCC4)cc32)ccc1O [10721/F09] | 65.2 | 
CC(C)(C)c1cc(C=C2C(=O)Nc3ccc(S(=O)(=O)N4CCOCC4)cc32)cc(Br)c1O [10721/F10] | 49.6 | 
CC(C)(C)c1cc(C=C2C(=O)Nc3ccc(S(=O)(=O)N4CCOCC4)cc32)cc(C(C)(C)C)c1O [10721/F11] | 29.7 | 
Cn1c(C=C2C(=O)Nc3ccc(CCCl)cc32)nc2ccccc21 [10721/G02] | 16.4 | 
Cn1cc(Cl)c(C=C2C(=O)Nc3ccc(CCCl)cc32)n1 [10721/G03] | 12.1 | 
Cc1cc(C=C2C(=O)Nc3ccc(CCCl)cc32)sc1C [10721/G04] | 3.2 | 
O=C1Nc2ccc(CCCl)cc2C1=Cc1cc2c([nH]1)CCCC2 [10721/G05] | -15.1 | 
O=C1Nc2ccc(CCCl)cc2C1=Cc1cc([N+](=O)[O-])cc(CCl)c1O [10721/G06] | 18.9 | 
O=C1Nc2ccc(CCCl)cc2C1=Cc1ccc(Cl)s1 [10721/G07] | 3.3 | 
Cc1cc(C)c(C=C2C(=O)Nc3ccc(CCCl)cc32)[nH]1 [10721/G08] | 5.4 | 
CC(C)(C)c1cc(C=C2C(=O)Nc3ccc(CCCl)cc32)ccc1O [10721/G09] | 20.4 | 
CC(C)(C)c1cc(C=C2C(=O)Nc3ccc(CCCl)cc32)cc(Br)c1O [10721/G10] | 24.4 | 
CC(C)(C)c1cc(C=C2C(=O)Nc3ccc(CCCl)cc32)cc(C(C)(C)C)c1O [10721/G11] | -7.1 | 

SMILES | Fik Kinase %Inhibition (FLK-1 receptor) [%] | PDGF Kinase %Inhibition (PDGF-R) [%]
CC(C)(C)c1cc(C=C2C(=O)Nc3c(Br)cc(Br)cc32)cc([N+](=O)[O-])c1O [10722/A02] | 0.8 | 28.9
O=C1Nc2c(Br)cc(Br)cc2C1=Cc1c(O)cc(O)cc1O [10722/A03] | 6.7 | 29.5
O=C1Nc2c(Br)cc(Br)cc2C1=Cc1ccc([N+](=O)[O-])s1 [10722/A04] | 13.4 | -0.9
O=C1Nc2c(Br)cc(Br)cc2C1=Cc1ccc(C(=O)O)cc1 [10722/A05] | 10.5 | 33.5
O=C1Nc2c(Br)cc(Br)cc2C1=Cc1ccc(F)cc1F [10722/A06] | 9.6 | 19.8
Cc1cc(C=C2C(=O)Nc3c(Br)cc(Br)cc32)cc(C)c1O [10722/A07] | 9.4 | 23.8
CC(C)(C)c1cc(C=C2C(=O)Nc3c(Br)cc(Br)cc32)cc(Cl)c1O [10722/A08] | 13.7 | 15.2
O=C1Nc2c(Br)cc(Br)cc2C1=Cc1csc([N+](=O)[O-])c1 [10722/A09] | 7.3 | 21.5
CCCCN(CCCC)c1ccc(C=C2C(=O)Nc3c(Br)cc(Br)cc32)cc1 [10722/A10] | 6.6 | 15.2
O=C1Nc2c(Br)cc(Br)cc2C1=Cc1ccc(C(F)(F)F)cc1 [10722/A11] | 6.7 | 21.5
CC(C)(C)c1cc(C=C2C(=O)Nc3ccc(I)cc32)cc([N+](=O)[O-])c1O [10722/B02] | 10.1 | 28.9
O=C1Nc2ccc(I)cc2C1=Cc1c(O)cc(O)cc1O [10722/B03] | 13.6 | 3.7
O=C1Nc2ccc(I)cc2C1=Cc1ccc([N+](=O)[O-])s1 [10722/B04] | 14.7 | 3.1
O=C1Nc2ccc(I)cc2C1=Cc1ccc(C(=O)O)cc1 [10722/B05] | 18.5 | 21.5
O=C1Nc2ccc(I)cc2C1=Cc1ccc(F)cc1F [10722/B06] | 13.9 | 21.5
CC(C)(C)c1cc(C=C2C(=O)Nc3ccc(I)cc32)cc(Cl)c1O [10722/B08] | 11.2 | 27.8
CCCCN(CCCC)c1ccc(C=C2C(=O)Nc3ccc(I)cc32)cc1 [10722/B10] | -0.9 | 20.3
O=C1Nc2ccc(I)cc2C1=Cc1ccc(C(F)(F)F)cc1 [10722/B11] | 5.2 | 25.5
CNS(=O)(=O)c1ccc2c(c1)C(=Cc1cc([N+](=O)[O-])c(O)c(C(C)(C)C)c1)C(=O)N2 [10722/D02] | 30.7 | 31.8
